The compounds below were run on Escherichia coli (ATCC25922) or Staphylococcus aureus (ATCC25923) (assay: Antibacterial MIC, microdilution method in Mueller-Hinton medium). Settings: Escherichia coli, 18 h, MIC in E. coli or S. aureus; two-fold serial dilutions 64 to 0.5 μg/ml in duplicate; 18 hours of incubation at 35° C.; read-out: Potency (MIC).
Format: cell-based
How it was run: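 Read after 18 h incubation at 35° C, MIC is the lowest compound level that blocked growth. Compounds were tested in duplicate over 64–0.5 μg/ml two-fold dilutions using Mueller-Hinton microdilution per NCCLS standard.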

| MIC [µg/mL] | Compound |
| --- | --- |
| < 64 | Cc1cc(C)c(S(=O)(=O)Nc2ccc(Nc3nc(N4CCCCC4)nc(N4CCCCC4)n3)cc2O)c(C)c1.Cl [N-[3-hydroxy-(2,4,6-trimethyl-benzenesulfonylamino)-phenyl]-4,6-Bis-((3R,5S)-3,5-diamino-pperidin-1-yl)-[1,3,5]triazine-2-amine] |
| < 16 | COc1cc(Nc2nc(N3CCCCC3)nc(N3CCCCC3)n2)ccc1NC(=O)c1ccc(Cl)cc1O.Cl [N-[4-(4-chlorro-2-hydroxy-benzoylamino)-3-methoxy-phenyl]-4,6-Bis-((3R,5S)-3,5-diamino-piperidin-1-yl)-[1,3,5]triazine-2-amine] |
| > 64 | Cc1csc(Nc2nc(N3C[C@H](N)C[C@H](N)C3)nc(N3C[C@H](N)C[C@H](N)C3)n2)n1.Cl [N-(4-methyl-thiazol-2-yl)-4,6-Bis-((3R,5S)-3,5-diamino-piperidin-1-yl)-[1,3,5]triazine-2-amine] |
| > 64 | COC(=O)c1ccccc1Nc1nc(N2C[C@H](N)C[C@H](N)C2)nc(N2C[C@H](N)C[C@H](N)C2)n1 [2-[4,6-Bis-((3R,5S)-3,5-diamino-piperidin-1-yl)-[1,3,5]triazin-2-ylamino]-benzoic acid methyl ester] |
| < 64 | Cc1cc(Nc2nc(N3C[C@H](N)C[C@H](N)C3)nc(N3C[C@H](N)C[C@H](N)C3)n2)ccc1NC(=O)c1cc2cccc(O)c2cc1O [N-{4-[(3,5-dihydroxy-naphthalene-2-carbonyl)-amino]-3-methyl-phenyl]-4,6-Bis-((3R,5S)-3,5-diamino-piperidin-1-yl)-[1,3,5]triazine-2-amine] |
| > 64 | Cl.Nc1nc(Nc2ccc(Cl)c(Cl)c2)nc(C2C[C@@H](N)C[C@@H](N)C2)n1 (stereo partly drawn) [6-((3S,5R)-3,5-Diamino-piperidin-1-yl)-N-(3,4-dichlorro-phenyl)-[1,3,5]triazine-2,4-diamine] |
| < 16 | Cc1ccc(S(=O)(=O)N(Cc2ccccc2)c2ccc(Nc3nc(N4CCCCC4)nc(N4CCN(c5ccncc5)CC4)n3)cc2O)cc1.Cl [N-Benzyl-N-{4-[4-((3R,5SD)-3,5-diamino-piperidin-1-yl)-6-(4-pyridin-4-yl-piperazin-1-yl)-[1,3,5]triazin-2-ylamino]-2-hydroxy-phenyl}-4-methyl-benzenesulfonamide] |
| > 64 | Cc1cc(=O)oc2cc(Nc3nc(N4CCCCC4)nc(N4CCCC4)n3)ccc12.Cl [7-[4-((3R,5S)-33,5-Diamino-piperidin-1-yl)-6-((3R,4S)-3,4-dihydroxy-pyrrolidin-1-yl)-[1,3,5]triazin-2-ylamino]-4-methyl-chromen-2-one] |
| < 64 | Cc1ccc(S(=O)(=O)N(Cc2ccccc2)c2ccc(Nc3nc(N4CCNCC4)nc(N4C[C@H](N)C[C@H](N)C4)n3)cc2O)cc1 [N-Benzyl-N-{4-[4-((3R,5S)-3,5-diamino-piperidin-1-yl)-6-piperazin-1-yl-[1,3,5]triazin-2-ylamino]-2-hydroxy-phenyl}-4-methyl-benzenesulfonamide] |
| > 64 | Cc1cc(=O)oc2cc(Nc3nc(N4C[C@H](N)C[C@H](N)C4)nc(N4CC[C@H](O)[C@@H]4CN)n3)ccc12 [7-[4-((2S,3S)-2-Aminomethyl-3-hydroxy-pyrrolidin-1-yl)-6-((3R,5S)-3,5-diamino-piperidin-1-yl)-[1,3,5]triazin-2-ylamino]-4-methyl-chromen-2-one] |
| < 64 | Cl.N[C@@H]1C[C@H](N)CN(c2nc(N3C[C@H](N)C[C@H](N)C3)nc(N3CCc4cc(Br)ccc43)n2)C1 [4-[4-(4,6-Bis-((3R,5S)-3,5-diamino-piperidin-1-yl)-[1,3,5]triazin-2-yl)-piperiazin-1-yl]-phenol] |
| < 64 | Cl.NC1C[C@H](N)CN(c2nc(Nc3ccc(Br)c4ccccc34)nc(N3C[C@H](N)C[C@H](N)C3)n2)C1 (stereo in doubt) [N-(4-bromo-naphthalen-1-yl)-4,6-Bis-((3R,5S)-3,5-diamino-piperidin-1-yl)-[1,3,5]triazine-2-amine] |
| > 64 | N[C@@H]1C[C@H](N)CN(c2nc(NC3CCNC3)nc(N3C[C@H](N)C[C@H](N)C3)n2)C1 (stereo partly drawn) [N-pyrrolidin-3-yl-4,6-Bis-((#r,5S)-3,5-diamino-piperidin-1-yl)-[1,3,5]triazine-2-amine] |

Same assay, conditions: Escherichia coli, 18 h, read-out: Potency (MIC)

| Compound | MIC [µg/mL] |
| --- | --- |
| N[C@@H]1C[C@H](N)CN(c2cc(Nc3ccc(NC(=O)c4ccc5ccccc5c4O)cc3)nc(N3C[C@H](N)C[C@H](N)C3)n2)C1 [1-Hydroxy-naphthalene-2-carboxylicacid {4-[2-((3R,5S)-3,5-diamino-piperidin-1-yl)-6-((3S,5R)-3,5-diamino-piperidin-1-yl)-pyrimidin-4-ylamino]-phenyl}-amide] | < 16 |
| Cc1cc(Nc2nc(N3C[C@H](N)C[C@H](N)C3)nc(N3C[C@H](N)C[C@H](N)C3)n2)ccc1NC(=O)c1cccc(O)c1O [N-[4-(2,3-dihydroxy-benzoylamino)-3-methyl-phenyl]-4,6-Bis-((3R,5S)-3,5-diamino-piperidin-1-yl)-[1,3,5]triazine-2-amine] | < 16 |
| Cc1cc(Nc2nc(N3C[C@H](N)C[C@H](N)C3)nc(N3C[C@H](N)C[C@H](N)C3)n2)cc(Cl)c1NC(=O)c1ccc(Cl)cc1O [N-[3-chloro-4-(4-chloro-2-hydroxy-benzoylamino)-5-methyl-phenyl]-4,6-Bis-((3R,5S)-3,5-diamino-piperidin-1-yl)-[1,3,5]triazine-2-amine] | < 16 |
| CC(=O)c1ccc(Nc2nc(N3C[C@H](N)C[C@H](N)C3)nc(N3C[C@H](N)C[C@H](N)C3)n2)cc1 [N-(4-acetyl-phenyl)-4,6-Bis-((3R,5S)-3,5-diamino-piperidin-1-yl)-[1,3,5]triazine-2-amine] | < 64 |
| N[C@@H]1C[C@H](N)CN(c2nc(Nc3ccc(NC(=O)c4ccc(F)cc4O)c(O)c3)nc(N3C[C@H](N)C[C@H](N)C3)n2)C1 [N-[4-(4-fluoro-2-hydroxy-benzoylamino)-3-hydroxy-phenyl]-4,6-Bis-((3R,5S)-3,5-diamino-piperidin-1-yl)-[1,3,5]triazine-2-amine] | < 16 |
| N[C@@H]1C[C@H](N)CN(c2cc(Nc3ccc(NC(=O)c4ccc5ccccc5c4O)cc3)cc(N3C[C@H](N)C[C@H](N)C3)n2)C1 [1-Hydroxy-naphthalene-2-carboxylic acid [4-(2,6-Bis-((3R,5S)-3,5-diamino-piperidin-1-yl)-pyridin-4-ylamino)-phenyl]-amide] | < 16 |
| Cc1ccccc1NNc1nc(N2C[C@H](N)C[C@H](N)C2)nc(N2C[C@H](N)C[C@H](N)C2)n1 [N-(4,6-Bis-((3R,5S)-3,5-diamino-piperidin-1-yl)-[1,3,5]triazin-2-yl)-N′-o-Tolyl-hydrazine] | < 64 |
| N[C@@H]1C[C@H](N)CN(c2nc(Nc3ccc(NC(=O)c4ccc(Cl)cc4)c(O)c3)nc(N3C[C@H](N)C[C@H](N)C3)n2)C1 [N-[4-(4-chloro-benzoylamino)-3-hydroxy-phenyl]-4,6-Bis-((3R,5S)-3,5-diamino-piperidin-1-yl)-[1,3,5]triazine-2-amine] | < 16 |
| CC(=O)c1ccc(Nc2nc(N(CCN)CCN)nc(N3C[C@H](N)C[C@H](N)C3)n2)cc1 [1-{4-[4-[Bis-(2-amino-ethyl)-amino]-6-((3R,5S)-3,5-diamino-piperidin-1-yl)-[1,3,5]triazin-2-ylamino]-phenyl}-ethanone] | < 64 |
| N[C@@H]1C[C@H](N)CN(c2nc(Nc3ccc(C(=O)Nc4ccccc4F)c(O)c3)nc(N3C[C@H](N)C[C@H](N)C3)n2)C1 [N-[4-(2-fluoro-phenylcarbamoyl)-3-hydroxy-phenyl]-4,6-Bis-((3R,5S)-3,5-diamino-piperidin-1-yl)-[1,3,5]triazine-2-amine] | < 64 |
| N[C@@H]1C[C@H](N)CN(c2nc(Nc3ccc(C(=O)Nc4cccc(SC(F)(F)F)c4)c(O)c3)nc(N3C[C@H](N)C[C@H](N)C3)n2)C1 [N-[3-hydroxy-4-(3-trifluoromethylsulfanyl-phenylcarbamoyl)-phenyl]-4,6-Bis-((3R,5S)-3,5-diamino-piperidin-1-yl)-[1,3,5]triazine-2-amine] | < 16 |
| Cc1ccc(C(=O)Nc2ccc(Nc3nc(N4C[C@H](N)C[C@H](N)C4)nc(N4C[C@H](N)C[C@H](N)C4)n3)cc2O)c(O)n1 [N-{3-hydroxy-4-[(2-hydroxy-6-methyl-pyridine-3-carbonyl)-amino]-phenyl}-4,6-Bis-((3R,5S)-3,5-diamino-piperidin-1-yl)-[1,3,5]triazine-2-amine] | < 64 |
| Cc1ccnc(NS(=O)(=O)c2ccc(Nc3nc(N4C[C@H](N)C[C@H](N)C4)nc(N4C[C@H](N)C[C@H](N)C4)n3)cc2)n1 [N-[4-(4-methyl-pyrimidin-2-ylsulfamoyl)-phenyl]-4,6-Bis-((3R,5S)-3,5-diamino-piperidin-1-yl)-[1,3,5]triazine-2-amine] | > 64 |
| Cc1cc(=O)oc2cc(NC(=O)c3ccc(Nc4nc(N5C[C@H](N)C[C@H](N)C5)nc(N5C[C@H](N)C[C@H](N)C5)n4)cc3O)ccc12 [N-[3-hydroxy-4-(4-methyl-2-oxo-2H-chromen-7-ylcarbamoyl)-phenyl]-4,6-Bis-((3R,5S)-3,5-diamino-piperidin-1-yl)-[1,3,5]triazine-2-amine] | < 16 |

Same assay, conditions: MIC in E. coli or S. aureus; two-fold serial dilutions 64 to 0.5 μg/ml in duplicate; 18 hours of incubation at 35° C.

| Compound | Potency (MIC) |
| --- | --- |
| NC[C@@H]1CN(c2nc(Nc3ccc(S(=O)(=O)Nc4ccc5cn[nH]c5c4)cc3)nc(N3C[C@H](N)C[C@H](N)C3)n2)CC[C@@H]1O [4-[4-((3R,4S)-3-Aminomethyl-4-hydroxy-piperidin-1-yl)-6-((3RE,5S)-3,5-diamino-piperidin-1-yl)-[1,3,5]triazin-2-ylamino]-N-(1H-indazol-6-yl)-benzenesulfonamide] | − (− means MIC>64 μg/ml in E. coli or S. aureus) |
| Cl.O=C(Oc1ccccc1)c1ccc(Nc2nc(N3CCCCC3)nc(N3CCCCC3)n2)cc1O [drawing 569, 4-[4,6-Bis-((3R,5S)-3,5-diamino-piperidin-1-yl)-[1,3,5]triazin-2-ylamino]-2-hydroxy-benzoic acidphenyl ester] | ++ (++ means MIC<16 μg/ml in E. coli or S. aureus) |

From patent US7223759B2, “Antibacterial 3,5-diaminopiperidine-substituted aromatic and heteroaromatic compounds” (Anadys Pharmaceuticals, Inc., priority 2003, dated 2007)
